According to US10308620B2, “Muscarinic M1 receptor positive allosteric modulators” (SUVEN LIFE SCIENCES LIMITED, priority 2015, dated 2019):

Tests used:
[1] = molecular target: recombinant human Muscarinic M1 receptor (Homo sapiens (Human), UniProt P11229); assay: Allosteric potency EC50, CHO cells with pCRE-Luc reporter, in presence of EC20 of acetylcholine; assay type: cell-based; details: 4 hours
How it was run: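 Stable CHO cells carrying human M1 receptor and a pCRE-Luc reporter, serum-starved overnight, then exposed to rising compound concentrations plus EC20 acetylcholine in OptiMEM for 4 h at 37 °C. Luciferase read after lysis. EC50 is the concentration giving 50% luciferase stimulation with EC20 acetylcholine present.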

[2] = Rodent pharmacokinetic study; assay type: in vivo, rat; details: male Wistar rats
Method: Rodent Pharmacokinetic Study
Male Wistar rats (260±50 grams) were used as experimental animals. Animals were housed individually in polypropylene cage. Two days prior to study, male Wistar rats were anesthetized with isoflurane for surgical placement of jugular vein catheter. Rats were randomly divided for oral (3 mg/kg) and intravenous (1 mg/kg) dosing (n=3/group) and fasted overnight before oral dosing (p.o.). However, rats allocated to intravenous (i.v.) dosing food and water was provided ad libitum.
At pre-determined point, blood was collected through jugular vein and replenished with an equivalent volume of normal saline. Collected blood was transferred into a labeled eppendorf tube containing 10 μL of heparin as an anticoagulant. Typically blood samples were collected at following time points: 0.08, 0.25, 0.5, 1, 2, 4, 6, 8, and 24 hours post dose. Blood was centrifuged at 4000 rpm for 10 minutes. Plasma was separated and stored frozen at −80° C. until analysis. The concentrations of the test compounds were quantified in plasma by qualified LC-MS/MS method using suitable extraction technique. The test compounds were quantified in the calibration range around 1-1000 ng/mL in plasma. Study samples were analyzed using calibration samples in the batch and quality control samples spread across the batch.
Pharmacokinetic parameters Cmax, Tmax, AUCt, T1/2, clearance, Vz and bioavailability were calculated by non-compartmental model using standard non-compartmental model by using Phoenix WinNonlin 6.0.2 or 6.0.3 version Software package.

[3] = Rodent brain penetration study; assay type: in vivo; details: rat, oral, 3 mg/kg, p.o., male Wistar rats, read-out: Single dose Rat Brain Penetration (Cb/Cp)
Method: Rodent Brain Penetration Study
Male Wistar rats (260±40 grams) were used as experimental animals. Three animals were housed in each cage. Animals were given water and food ad libitum throughout the experiment and maintained on a 12 hours light/dark cycle.
Brain penetration was determined in discrete manner in rats. One day prior to dosing day, male Wistar rats were acclimatized and randomly grouped according to their weight. At each time point (0.50, 1 and 2 hours) n=3 animals were used.
The test compounds were suitably preformulated and administered orally at (free base equivalent) 3 mg/kg. Blood samples were removed via cardiac puncture by using isoflurane anesthesia. The animals were sacrificed to collect brain tissue. Plasma was separated and brain samples were homogenized and stored frozen at −20° C. until analysis. The concentrations of the test compounds in plasma and brain were determined using LC-MS/MS method.
The test compounds were quantified in plasma and brain homogenate by qualified LC-MS/MS method using suitable extraction technique. The test compounds were quantified in the calibration range of 1-500 ng/mL in plasma and brain homogenate. Study samples were analyzed using calibration samples in the batch and quality control samples spread across the batch. Extent of brain-plasma ratio was calculated (Cb/Cp).

[4] = test system: soluble amyloid precursor protein α (sAPPα); assay: Cortical sAPPα levels in mice brain (ELISA); assay type: in vivo; details: male C57BL/6J mice, 10 mg/kg, i.p., sixty minutes post treatment; FIG. 4
Method: Modulation of Soluble Amyloid Precursor Protein α (sAPPα) Levels in Cortex
Estimation of Cortical sAPPα Levels in Mice Brain
Male C57BL/6J mice ([…]) were randomly divided (n=8 group) into five groups. Control group of mice were intraperitoneally (i.p.) administered with vehicle (99.75% of 0.25% HEC HHX+0.25% tween 80) and the treatment group of mice received a single intraperitoneal injection of example 18 (dose volume of 10 mL/kg). Mice were sacrificed by cervical dislocation at 60 minutes after administration of test compound. Brains were quickly isolated and the cortex was dissected at −20° C. The cortex was immediately kept on a dry ice and weighed before being stored at −80° C. until quantification of sAPPα using Enzyme-linked immunosorbent assay (ELISA).
• 1. […]
To investigate the role of an acute treatment of test compound on sAPPα levels, the expression of this protein was measured in homogenates obtained from the cortex of treated and untreated rats by employing ELISA assay. […]
Statistical analyses were performed using the Graph Pad Prism (Version 4). Results are expressed as Mean±SEM levels of sAPPα expressed as percentage of control values (rats treated with vehicle). Statistical significance after treatment was assessed using One-Way ANOVA followed by Dunnett's post test and the significance level was set below p value less than 0.05.

[5] = rat, plasma, iv, 1 mg/kg i.v. (bolus)
[6] = rat, plasma, 3 mg/kg oral (gavage)

recombinant human Muscarinic M1 receptor, sequence (P11229 whole entry): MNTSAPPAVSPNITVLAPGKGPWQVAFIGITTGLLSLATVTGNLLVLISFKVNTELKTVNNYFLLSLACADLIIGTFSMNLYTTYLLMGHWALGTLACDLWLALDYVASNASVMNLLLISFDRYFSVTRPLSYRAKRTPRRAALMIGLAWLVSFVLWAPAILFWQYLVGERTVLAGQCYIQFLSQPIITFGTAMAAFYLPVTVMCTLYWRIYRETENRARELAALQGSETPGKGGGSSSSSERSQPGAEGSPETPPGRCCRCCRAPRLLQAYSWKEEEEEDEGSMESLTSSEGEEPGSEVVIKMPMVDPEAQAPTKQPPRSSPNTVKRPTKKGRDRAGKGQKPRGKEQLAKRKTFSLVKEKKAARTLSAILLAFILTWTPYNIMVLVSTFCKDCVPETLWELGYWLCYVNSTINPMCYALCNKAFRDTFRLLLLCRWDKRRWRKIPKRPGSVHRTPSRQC

EC50 [1]: 331 nM
AUC0-t ([2]; 1 mg/kg i.v. (bolus)): 929 ± 27 ng·h/mL
AUC0-t ([2]; 3 mg/kg oral (gavage)): 2070 ± 839 ng·h/mL
clearance [2, 5]: 17 ± 1 mL/min/kg
half-life [2, 5]: 2.1 ± 0.1 h
Vd ([2]; rat, plasma, iv, 1 mg/kg i.v. (bolus), read-out: Vz): 3.2 ± 0.1 L/kg
Cmax [2, 6]: 477 ± 96 ng/mL
Tmax [2, 6]: 0.42 ± 0.14 h
half-life [2, 6]: 3.9 ± 0.8 h
bioavailability ([2]; rat, plasma, 3 mg/kg oral vs 1 mg/kg i.v.): 74 ± 30%
Kp [3]: 2.27 ± 0.64
Structure (SMILES): O=C(N[C@H]1CCCC[C@@H]1O)C1=CN(Cc2cccc(F)c2F)c2ccccc2O1 [Example 18, N-(cis-1S, 2S-2-Hydroxycyclohexyl)-4-(2,3-difluorobenzyl)-4H-benzo[1,4]oxazine-2-carboxamide]
mean increase in cortical sAPPα levels [4]: 38%
